Reference: patent publication US10376520B2, “Methods for the treatment of cardiovascular disorders” (Galapagos NV, priority 2015, dated 2019)

Test system: Subjects With Active Crohn's Disease
Assay: [HDL] determination, Study 5 (Crohn's disease)
Assay type: in vivo, human
Details: for [HDL] Mean CFB - 10 weeks results: 200 mg q.d.
Description: Double-Blind, Randomized, Placebo-Controlled, Multi-Centre Study to Investigate the Efficacy and Safety of Compound 1 in Subjects With Active Crohn's Disease With Evidence of Mucosal Ulceration.
This is a double-blind, randomized, placebo-controlled, multi-centre Phase 2 study to investigate the efficacy and safety of Compound 1 administered once daily for the treatment of active CD with evidence of mucosal ulceration. The pharmacokinetics (including a PK substudy) and pharmacodynamics of Compound 1 and metabolite in CD will also be characterised.
A total of 180 eligible subjects will be randomized to receive Compound 1 or placebo in addition to their stable background treatment (eg, corticosteroids, aminosalicylates, or CD-related antibiotics). The study will consist of 2 parts, with total treatment duration of 20 weeks. Randomization in Part 1 will be stratified according the subject's previous anti-TNF exposure/response, CRP level at Screening, and oral corticosteroid use at visit Day −1.
After the first 10 weeks of treatment in Part 1, patients will be re-randomized for Part 2 as shown in the diagram below and will be stratified according to the subject's clinical response, previous anti-TNF exposure/response, and oral corticosteroid use at visit Day −1.
The following assays were conducted at Eurofins Global Central Laboratory, Bergschot 71, 4817 PA Breda, The Netherlands, and at Quest Diagnostics, Clinical Trials, Quest House, 125-135 Staines Road, Hounslow, Middlesex, TW3 3JB, United Kingdom. The assays for Study 5 were performed at BARC Europe, 3B, Industrie Park, Zwijnaarde, B-9052 Ghent, Belgium.
This assay relies on a homogeneous enzymatic colorimetric test. In the presence of magnesium ions, dextran sulfate selectively forms water-soluble complexes with LDL, VLDL and chylomicrons which are resistant to PEG-modified enzymes.
The cholesterol concentration of [HDL]-cholesterol is determined enzymatically by cholesterol esterase and cholesterol oxidase coupled with PEG to the amino groups (approx. 40%).
In the presence of peroxidase, the hydrogen peroxide generated reacts with 4-amino-antipyrine and Sodium N-(2-hydroxy-3-sulfopropyl)-3,5-dimethoxyaniline (HSDA) to form a purple-blue dye. The color intensity of this dye is directly proportional to the cholesterol concentration and is measured photometrically.
Human serum and plasma samples [HDL] determination was done on a Roche/Hitachi Cobas c 701/702 system which automatically calculate the analyte concentration of each sample. Samples containing precipitates are centrifuged before performing the assay.

[1] = 200 mg q.d. week 0 to 10, to 100 mg q.d. week 10 to 20, week 4
[2] = 200 mg q.d. week 0 to 10, to 100 mg q.d. week 10 to 20, week 6
[3] = 200 mg q.d. week 0 to 10, to 100 mg q.d. week 10 to 20, week 10
[4] = 200 mg q.d. week 0 to 10, to 100 mg q.d. week 10 to 20, week 12
[5] = 200 mg q.d. week 0 to 10, to 100 mg q.d. week 10 to 20, week 16
[6] = 200 mg q.d. week 0 to 10, to 100 mg q.d. week 10 to 20, week 20
[7] = 200 mg q.d. week 0 to 10, to placebo week 10 to 20, week 2
[8] = 200 mg q.d. week 0 to 10, to placebo week 10 to 20, week 4
[9] = 200 mg q.d. week 0 to 10, to placebo week 10 to 20, week 6
[10] = 200 mg q.d. week 0 to 10, to placebo week 10 to 20, week 10
[11] = 200 mg q.d. week 0 to 10, to placebo week 10 to 20, week 12
[12] = 200 mg q.d. week 0 to 10, to placebo week 10 to 20, week 16
[13] = 200 mg q.d. week 0 to 10, to placebo week 10 to 20, week 20
[14] = continued 200 mg q.d. (N = 77), week 2
[15] = continued 200 mg q.d. (N = 77), week 4
[16] = continued 200 mg q.d. (N = 77), week 6
[17] = continued 200 mg q.d. (N = 77), week 10
[18] = continued 200 mg q.d. (N = 77), week 12
[19] = continued 200 mg q.d. (N = 77), week 16
[20] = continued 200 mg q.d. (N = 77), week 20
[21] = placebo week 0 to 10, then 100 mg q.d. (N = 22), week 12
[22] = placebo week 0 to 10, then 100 mg q.d. (N = 22), week 16
[23] = placebo week 0 to 10, then 100 mg q.d. (N = 22), week 20
[24] = placebo week 0 to 10, to 100 mg q.d. week 10 to 20, week 12
[25] = placebo week 0 to 10, to 100 mg q.d. week 10 to 20, week 16
[26] = placebo week 0 to 10, to 100 mg q.d. week 10 to 20, week 20

Structure (SMILES): O=C(Nc1nc2cccc(-c3ccc(CN4CCS(=O)(=O)CC4)cc3)n2n1)C1CC1 [Compound 1, cyclopropanecarboxylic acid {5-[4-(1,1-dioxo-thiomorpholin-4-ylmethyl)-phenyl]-[1,2,4]triazolo[1,5-a]pyridin-2yl}-amide]
- [HDL] Mean CFB - 20 weeks results [1]: 25.33%
- [HDL] Median CFB - 10 weeks results [1]: 16.75%
- [HDL] Mean CFB - 20 weeks results [2]: 25.93%
- [HDL] Median CFB - 10 weeks results [2]: 23.04%
- [HDL] Mean CFB - 20 weeks results [3]: 26.29%
- [HDL] Median CFB - 10 weeks results [3]: 19.61%
- [HDL] Mean CFB - 20 weeks results [4]: 14.27%
- [HDL] Median CFB - 10 weeks results [4]: 10.66%
- [HDL] Mean CFB - 20 weeks results [5]: 11.19%
- [HDL] Median CFB - 10 weeks results [5]: 2.24%
- [HDL] Mean CFB - 20 weeks results [6]: 15.54%
- [HDL] Median CFB - 10 weeks results [6]: 10.18%
- [HDL] Mean CFB - 20 weeks results [7]: 13.75%
- [HDL] Median CFB - 10 weeks results [7]: 13.54%
- [HDL] Mean CFB - 20 weeks results [8]: 23.62%
- [HDL] Median CFB - 10 weeks results [8]: 27.96%
- [HDL] Mean CFB - 20 weeks results [9]: 13.52%
- [HDL] Median CFB - 10 weeks results [9]: 13.45%
- [HDL] Mean CFB - 20 weeks results [10]: 14.87%
- [HDL] Median CFB - 10 weeks results [10]: 15.66%
- [HDL] Mean CFB - 20 weeks results [11]: −3.87%
- [HDL] Median CFB - 10 weeks results [11]: −1.75%
- [HDL] Mean CFB - 20 weeks results [12]: −7.46%
- [HDL] Median CFB - 10 weeks results [12]: −3.07%
- [HDL] Mean CFB - 20 weeks results [13]: −8.40%
- [HDL] Median CFB - 10 weeks results [13]: −4.82%
- [HDL] Mean CFB - 10 weeks results (week 2): 17.940%
- [HDL] Mean CFB - 10 weeks results (week 4): 19.414%
- [HDL] Mean CFB - 10 weeks results (week 6): 20.199%
- [HDL] Mean CFB - 10 weeks results (week 10): 19.734%
- [HDL] Mean CFB - 20 weeks results [14]: 0.23 mmol/L
- [HDL] Median CFB - 20 weeks results [14]: 0.21 mmol/L
- [HDL] Mean CFB - 20 weeks results [15]: 0.18 mmol/L
- [HDL] Median CFB - 20 weeks results [15]: 0.16 mmol/L
- [HDL] Mean CFB - 20 weeks results [16]: 0.24 mmol/L
- [HDL] Median CFB - 20 weeks results [16]: 0.21 mmol/L
- [HDL] Mean CFB - 20 weeks results [17]: 0.22 mmol/L
- [HDL] Median CFB - 20 weeks results [17]: 0.25 mmol/L
- [HDL] Mean CFB - 20 weeks results [18]: 0.20 mmol/L
- [HDL] Median CFB - 20 weeks results [18]: 0.15 mmol/L
- [HDL] Mean CFB - 20 weeks results [19]: 0.17 mmol/L
- [HDL] Median CFB - 20 weeks results [19]: 0.20 mmol/L
- [HDL] Mean CFB - 20 weeks results [20]: 0.10 mmol/L
- [HDL] Median CFB - 20 weeks results [20]: 0.15 mmol/L
- [HDL] Mean CFB - 20 weeks results [21]: 0.03 mmol/L
- [HDL] Median CFB - 20 weeks results [21]: 0.12 mmol/L
- [HDL] Mean CFB - 20 weeks results [22]: 0.09 mmol/L
- [HDL] Median CFB - 20 weeks results [22]: 0.12 mmol/L
- [HDL] Mean CFB - 20 weeks results [23]: 0.00 mmol/L
- [HDL] Median CFB - 20 weeks results [23]: 0.10 mmol/L
- [HDL] Mean CFB - 20 weeks results [24]: 5.75%
- [HDL] Median CFB - 10 weeks results [24]: 8.64%
- [HDL] Mean CFB - 20 weeks results [25]: 10.06%
- [HDL] Median CFB - 10 weeks results [25]: 8.63%
- [HDL] Mean CFB - 20 weeks results [26]: 3.77%
- [HDL] Median CFB - 10 weeks results [26]: 11.27%
